# Results from patent US20240156901A1, “GAL3BP POLYPEPTIDE COMPOSITIONS AND METHODS FOR TREATMENT OF CANCER AND DETERMINING TREATMENT RESPONSIVENESS” (UNIVERSITY OF PITTSBURGH-OF THE COMMONWEALTH SYSTEM OF …, priority 2021, published 2024).
# Legend:
# [1] = tested on: GL261-CHI3L1 glioma; assay: Flow cytometry of immune cell populations in GL261-CHI3L1 glioma after peptide treatment; type: in vivo, mouse; conditions: tumors of C57BL/6 mice bearing GL261-CHI3L1
# Procedure: Mice with neurological deficits or moribund appearance were sacrificed. Tumors were separated and homogenized for 15 min at 37° C. in Collagenase IV Cocktail (3.2 mg/mL collagenase type IV, 2 mg/mL soybean trypsin inhibitor, and 1.0 mg/mL deoxyribonuclease I; Worthington Biochemical). Red blood cells were lysed using ACK lysing buffer (Gibco). Cell suspensions were filtered through 70-μm strainers, centrifuged, and resuspended in cold FACS buffer (DPBS with 1% BSA) for further analysis.
# About 3×10^6 cells were used for each staining panel. Cells were incubated with 1.0 μg of TruStain fcX (BioLegend) for 10 min on ice to block Fc receptors, followed by staining with the combination of indicated antibodies. After staining, cells were washed with FACS buffer three times and incubated with Fixation Buffer (BioLegend) at RT for 20 min. Cells were washed with FACS buffer, resuspended in Cyto-Last Buffer (BioLegend), and analyzed by either a BD LSRFortessa or BD FACSAria II SORP. For CyTOF, samples were prepared as described above for flow cytometry. Three pairs of samples (scrambled shRNA vs Chi3l1 KD) with similar tumor sizes were chosen and the staining procedure was followed as previously described (Mitsialis V, et al., 2020). The samples were analyzed on a Helios2 CyTOF system (Fluidigm) at the Longwood Medical Area CyTOF Core. Additional information about flow cytometry antibodies is provided in the Supplementary Material and Methods section.
# [2] = tested on: GL261-CHI3L1 orthotopic tumors; assay: Peptide treatment of GL261-CHI3L1 orthotopic tumors (MRI, survival); conditions: C57BL/6 mice bearing GL261-CHI3L1 orthotopic tumors; 20 μM peptide into brain tumor via guide screw
# Procedure: Male and female ICR SCID and C57BL/6 mice (4-6 weeks of age) were purchased from Taconic Biosciences and The Jackson Laboratory, respectively. The intracranial xenograft tumor models were established as previously described (Hu B et al., 2016). Cells in 5 μL DPBS were injected at the following numbers: TS543 vector control or CHI3L1 overexpression (OE), 1×10^4 cells; QPP7 scrambled control or CHI3L1 knockdown (KD), 1×10^5 cells; and GL261 vector control or CHI3L1 OE, 1×10^5 cells. […] For mice treated with peptides, 5 uL of 20 uM SCP or GMP was delivered into the mouse brain every 4 days with a total of seven times.
# MRI and bioluminescent imaging of mice were performed at Rangos Research Center Animal Imaging Core. The tumor size of mice detected by MRI was analyzed with ITK-SNAP.
# For intracranial xenograft tumor models treated with peptides, mice were implanted with a guide screw prior to intracranial injection. To install the screw, mice were anesthetized by intraperitoneal (IP) injection with ketamine/xylazine solution (1.75 mL of 100 mg/mL ketamine and 0.25 mL of 100 mg/mL xylazine in 8 mL sterile water) at a dosage of 100 μL/20 g body weight. The screw was covered by sealing the skin, and mice were allowed to recover for one week before intracranial implantation. GL261 cells overexpressing CHI3L1 (1×10^5) were injected in 5 μL of DPBS containing 20 μM of either scrambled control peptide (SCP) or Gal3BP mimetic peptide (GMP). SCP (20 μM) or GMP (20 μM) was subsequently given once every 3 days with a total of seven times by intracranial injection via the guide screw.
# All mice received general inhalation anesthesia with Isoflurane for in vivo brain imaging. […] Depth of anesthesia was monitored by toe reflex (extension of limbs, spine positioning) and respiration rate. […] Respiration was monitored using a pneumatic sensor placed between the animal bed and the mouse's abdomen, rectal temperature was measured with a fiberoptic sensor, and core temperature was maintained at 36.8±0.2° C. with a feedback-controlled warm air source (SA Instruments). […]
# [3] = tested on: bone-marrow derived macrophages (BMDMs); assay: Scratch-wound healing assay, BMDM migration; type: cell-based, mouse; conditions: rCHI3L1 0.6 μg/mL; 6 hours
# Procedure: (§1) BMDMs were isolated from male and female C57BL/6 mice as previously described (Ying W et al., 2013). Briefly, femur bones were isolated from mice, and IMDM (ATCC) supplemented with 10% FBS and P/S was used to flush the bone marrow into a petri dish. After 4-6-hour incubation, the floating cells were collected and resuspended in the medium with 20 ng/mL M-CSF (PrproTech). On day 6, the fully differentiated cells were designated as an M0 state. To induce BMDM polarization toward an M1 state, 100 ng/mL LPS (Invitrogen) and 50 ng/mL IFNγ (PrproTech) were added to the M0 cells for 24 hours. To induce BMDM polarization toward an M2 state, 20 ng/mL IL-4 (PrproTech) was added to the M0 cells for 72 hours.
# (§2) BMDM were polarized to the indicated status (M0, M1, or M2) and seeded in 12-well plates at 80-90% confluency. The cells were switched to the medium without FBS for 6 hours of starvation. Scratches were made using pipettor tips and fresh IMDM with indicated recombinant proteins and/or peptides were added. Images of the scratches were captured at indicated times. For the SIM-A9 scratch-wound healing assay, 12-well plates were coated with 10 μg/mL fibronectin (Sigma-Aldrich) at 37° C. overnight before seeding cells.
# [4] = tested on: bone-marrow derived macrophages (BMDMs); assay: Transwell migration assay, BMDM migration; type: cell-based, mouse
# Procedure: as §1
# (§3) Polarized BMDMs were starved by removing FBS for 6 hours. Cells were collected and 2×10^5 cells in 200 μL of IMDM were added into each transwell insert (Millipore, Cat #MCMP24H48). 700 μL of IMDM containing 2% FBS and the indicated recombinant proteins was added to the bottom of the plates. After 14-hour incubation, transwell inserts were stained with HEMA 3 Stain Set (Fisher Scientific). Insert membranes were separated and mounted on glass slides with CYTOSEAL XYL (ThermoFisher) and images were taken by an inverted microscope (Leica DM 2500). For the SIM-A9 cells, the inserts were coated with 10 μg/mL fibronectin overnight in advance of seeding cells.
# [5] = tested on: mouse microglial cell line (SIM-A9); assay: Scratch-wound healing assay, microglial cell migration; type: cell-based; conditions: rCHI3L1 0.6 μg/mL, 6 hours
# Procedure: as §2
# [6] = tested on: microglial cell line (SIM-A9); assay: Transwell migration assay, microglial cell migration; type: cell-based, mouse
# Procedure: as §3
# [7] = tested on: CHI3L1 secretion; assay: ELISA of secreted CHI3L1 in conditioned medium of GBM neurosphere lines; type: cell-based, human; conditions: two GBM neurosphere lines
# Procedure: Secreted CHI3L1 protein in the cell culture supernatant was measured by using the Quantikine Human CHI3L1 Immunoassay (R&D Systems, Cat #DC3L10). CHI3L1 content in the conditioned media was quantified per million cells and no CHI3L1 was detected in DMEM or NSC medium supplemented with EGF and bFGF.
# [8] = biological target: Gal3-CHI3L1 interaction (Homo sapiens, UniProt P17931); conditions: TS603-V5-CHI3L1 cells; 10 μM for 24 hours
# Procedure: (§4) TS603 cells overexpressing CHI3L1 with V5 tag (TS603 CHI3L1_V5_OE) or THP-1 cells treated with the peptides were collected and protein-protein interaction was crosslinked with 2 mM Dithiobis (succinimidyl propionate, DSP). Membrane proteins were extracted with the Membrane Protein Extraction Kit (ThermoFisher, Cat #89842) and ˜500 μg of protein was used for Co-IP assay by the Co-Immunoprecipitation Kit (ThermoFisher, Cat #26149). For mass spectrometry, 10 μg of each of the TS603 CHI3L1_V5_OE Co-IP samples were separated in a 12% SDS-PAGE gel and analyzed by MS at the University of Pittsburgh Biomedical MS Center.
# (§5) To confirm Co-IP experiments in TS603 cells by immunoblotting, the magnetic beads of protein G (Bio-Rad, Cat #161-4023) were used following the manufacturer's protocol. […] For in vivo THP-1 cell or in vitro recombinant protein Co-IP experiments, additional following antibodies were used: Mouse anti-CHI3L1 (Santa Cruz Biotechnology, Cat #SC-393590), Rat anti-Galectin-3 (Santa Cruz Biotechnology, Cat #SC-23938), anti-Galectin-3BP (Santa Cruz Biotechnology, Cat #SC-374541), Rabbit anti-CHI3L1 (Cell Signaling Technology, Cat #47066), and Rat IgG (BioXCell, Cat #BE0090).
# [9] = biological target: Gal3-Gal3BP interaction (Homo sapiens, UniProt P17931); conditions: TS603-V5-CHI3L1 cells; 10 μM for 24 hours
# Procedure: as §4, §5
# Sequence of Gal3-Gal3BP interaction (P17931 2-250 limits assumed): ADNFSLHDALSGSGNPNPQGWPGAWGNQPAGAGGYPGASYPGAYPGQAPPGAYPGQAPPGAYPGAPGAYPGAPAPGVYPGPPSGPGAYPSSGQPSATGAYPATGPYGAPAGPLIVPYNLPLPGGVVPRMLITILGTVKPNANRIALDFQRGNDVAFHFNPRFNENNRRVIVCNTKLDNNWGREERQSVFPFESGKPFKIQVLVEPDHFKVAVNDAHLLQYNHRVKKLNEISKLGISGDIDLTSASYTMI
# Sequence of Gal3-Gal3BP interaction (P36222 22-383 partner): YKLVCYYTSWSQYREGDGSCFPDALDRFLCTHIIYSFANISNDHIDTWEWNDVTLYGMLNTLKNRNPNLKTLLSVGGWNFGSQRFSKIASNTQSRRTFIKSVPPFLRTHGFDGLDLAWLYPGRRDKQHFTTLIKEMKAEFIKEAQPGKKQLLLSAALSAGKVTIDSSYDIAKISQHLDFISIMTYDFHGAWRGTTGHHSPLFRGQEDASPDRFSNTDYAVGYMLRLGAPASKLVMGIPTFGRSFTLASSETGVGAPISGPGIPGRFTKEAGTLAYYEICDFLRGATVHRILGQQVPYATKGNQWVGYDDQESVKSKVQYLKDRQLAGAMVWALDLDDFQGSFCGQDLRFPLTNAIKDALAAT
# Sequence of Gal3-CHI3L1 interaction (P17931 2-250 limits assumed): as the sequence (P17931 2-250 limits assumed) above
# Sequence of Gal3-CHI3L1 interaction (P36222 22-383 partner): as the sequence (P36222 22-383 partner) above
compound,measurement,setting,value
"L1RTRLEETLSSDTSH15 (LRTRLEETLSSDTSH) [SCP, reference compound]",CD4+ cell population,[1],39.8±4.0%
same,M2-like TAMs,"[1]; mean±SEM, P=0.0536",52.7±3.9%
same,M1-like TAMs,"[1]; mean±SEM, P=0.0719",38.2±6.7%
same,median survival,[2],29 days
rCHI3L1: recombinant CHI3L1 protein,M0 and M1 BMDM migration,[3],not M0 and M1 BMDMs
same,M2 BMDM migration,[3],promoted M2 BMDM migration
same,M2 BMDM migration,[4],promoted cell migration in M2 BMDMs
same,microglial cell migration,[5],did not increase cell migration
same,microglial cell migration,[6],"not in M0 BMDMs, M1 BMDMs, or microglial cells"
Cn1c(=O)n(-c2ccc(C(C)(C)C#N)cc2)c2c3cc(-c4cnc5ccccc5c4)ccc3ncc21 [NVP-BEZ235],CHI3L1 secretion in conditioned medium,[7],decreased CHI3L1 secretion in a dose- and time-dependent manner
Nc1cc(C(F)(F)F)c(-c2cc(N3CCOCC3)nc(N3CCOCC3)n2)cn1 [NVP-BKM120],CHI3L1 secretion in conditioned medium,[7],decreased CHI3L1 secretion in a dose- and time-dependent manner
OC[C@H]1O[C@@H](S[C@@H]2O[C@H](CO)[C@H](O)[C@H](n3cc(-c4cccc(F)c4)nn3)[C@H]2O)[C@H](O)[C@@H](n2cc(-c3cccc(F)c3)nn2)[C@H]1O [TD139],Gal3-CHI3L1 interaction (Co-IP),[8],not Gal3-CHI3L1 interactions
same,Gal3-Gal3BP interaction (Co-IP),[9],completely disrupted
